From patent US20240277744A1, “TREATMENT OF CHEMORESISTANT CANCER CELLS” (Cornell University, priority 2023, published 2024)
Where a name gives a salt, the structure may show the parent alone.

Columns and labels:
TRA-1-81+ SW1990 cells = test: Flow cytometry of TRA-1-81+ cells; assay type: cell-based; conditions: SW1990; 5 days; GEM 50, 100 or 250 nM; flow cytometry
Experimental: (§1) Flow cytometry. TRA-1-60 PerCP-efluor710 (eBioscience, 1:50) and TRA-1-81 PE (eBioscience, 1:100) were used. Cells were blocked with 5% FBS plus mouse IgM isotype control antibody (eBioscience, 1:100) at room temperature for 15 min, then stained on ice for 30 min. Stained cells were resuspended in PBS containing 300 nM DAPI and proceeded to analysis or sorting. Cell apoptosis was analyzed with FITC-AnnexinV labeling reagent (BD). Flow cytometry analysis was carried out on BD FACS Calibur with FlowJo 9.8 software. Sorting was performed with FACSVantage SE (Becton Dickinson).

A549 cell line = test: Flow cytometry of TRA-1-81+ cells; assay type: cell-based
Experimental: as §1

TRA-1-60+ SW1990GR cells = test: High content screen / immunofluorescent staining of TRA-1-60+ cells; assay type: cell-based; conditions: SW1990GR
Experimental: Immunofluorescent staining. Primary antibodies were TRA-1-60 antibody (BD, 1:200), biotin conjugated TRA-1-60 antibody (eBioscience, 1:200). Secondary antibodies were donkey anti-mouse Alexa-efluor594 (Life technologies, 1:500) or streptavidin conjugated Alexa Fluor® 594 (Life technologies, 1:200).
Cells were fixed with 10% formalin for 20 min at room temperature. After 1 hour blocking in PBS with 5% horse serum and 0.3% triton-X100, primary antibodies were added to cells and incubated overnight at 4° C. Secondary antibody incubation was 1.5 hours at room temperature.
Chemical library screening. The Prestwick library of FDA approved drugs (˜1280 chemicals) plus a collection of drugs in clinical trials was used for the screen on SW1990GR cells.
For screening, SW1990GR cells were plated in 384-well plates (5000 cells/well). After overnight incubation, chemicals were added at 1 μM or 10 μM in duplicate. After 5 days of treatment, plates were stained with TRA-1-60 antibody and analyzed with MetaXpress High Content Image Acquisition and Analysis System (Molecular Devices). Wells treated with DMSO were set as control. The reduction was calculated by subtracting the percentage of TRA-1-60^+ cells in the chemical-treated wells from that of control wells. Standard deviation of TRA-1-60^+ percentage in control wells was calculated and 3-fold of this value was taken as threshold to pick up the primary hit.

[1] = system: primary human xenograft tumor; test: Patient derived pancreatic adenocarcinoma xenograft in nude mice; assay type: in vivo; conditions: 50 mg/kg GEM twice weekly, one month; not in control tumors
Experimental: To examine whether TRA-1-60 expression correlates with chemotherapy treatment in primary tumors, a human pancreatic adenocarcinoma specimen was freshly collected after surgery, transplanted to nude mice and expanded subcutaneously. Mice carrying the primary human xenograft tumor were separated into two groups: one group was treated with 50 mg/kg GEM twice weekly while the other group received the same volume of PBS as control. After one month, xenograft tumors were stained with TRA-1-60 antibody. TRA-1-60 staining was detected in GEM-treated xenograft tumors but not control xenograft tumors (FIG. 7C, D), confirming that TRA-1-60 expression is positively correlated with chemoresistance.
(§2) Tissue samples were fixed with 4% paraformaldehyde overnight at 4° C., washed with 70% ethanol and then embedded in paraffin. After De-paraffin and rehydration, antigen retrieval was preceded in hot antigen retrieving buffer with a normal-pressure steamer for 30 min. blocking was proceeded 1 hour at room temperature in PBS containing 1% horse serum. Primary antibody was stained overnight at 4° C. in PBS plus 0.5% Triton X-100 and 5% horse serum. Secondary antibody was incubated at room temperature for 1.5 hours.

SW1990 cells = test: Cell viability (DAPI nuclei count, high content imaging); assay type: cell-based; conditions: Homo sapiens; parental SW1990; read-out: IC50 for GEM (viability)
Experimental: (§3) Cell viability, colony formation, sphere formation and growth curve. To quantify viability, cells were plated into 96-well plates (6000/well) one night before treatment. […] After fixation, cell nuclei were stained with DAPI (Invitrogen). Plates were analyzed using MetaXpress High Content Image Acquisition and Analysis System (Molecular Devices).

SW1990 xenograft tumors [2] = test: Luciferase-labeled SW1990 xenograft in nude mice; assay type: in vivo
Experimental: CYM suppresses TRA-1-60 expression and blocks tumor growth in vivo. Next it was sought to validate the effects of CYM in vivo, using a xenograft model with luciferase-labeled SW1990 cells propagated in nude mice. Tumor-harboring mice were separated into 4 groups and treated with PBS (control), 2 mg/kg CYM, 50 mg/kg GEM, or 2 mg/kg CYM plus 50 mg/kg GEM through intraperitoneal injections twice per week. Luciferase intensity was quantified twice per week and normalized with the value obtained from the starting day. […] Consistent with imaging, of the four groups, mice treated with GEM plus CYM generated xenograft tumors with the smallest size (FIG. 6C) and weight (FIG. 6D).
as §2
Mouse Procedures. To assess in vivo effects of Cymarin (CYM), Luciferase-labelled SW1990 cells were transplanted to nude mice subcutaneously. Each mouse received four injections (5×10^5 cells/site). 12 days later, mice were randomly separated into 4 groups and treated with PBS (control), GEM (50 mg/kg bodyweight), CYM (2 mg/kg bodyweight) or GEM (50 mg/kg bodyweight) plus CYM (2 mg/kg bodyweight) twice weekly via intraperitoneal injection. Image acquisition was performed twice weekly with Xtreme Optical and X-ray small animal imaging system. Luciferin potassium salt (Regis), substrate of luciferase, was applied at 2 mg/25 g bodyweight in 150 μl PBS. Isoflurane (Henry Schein) was used for anesthesia during imaging.

RKO cell line = test: Flow cytometry of TRA-1-81+ cells; assay type: cell-based
Experimental: as §1

HCT116 cell line = test: Flow cytometry of TRA-1-81+ cells; assay type: cell-based; conditions: HCT116; flow cytometry
Experimental: as §1

DU145 cell line = test: Flow cytometry of TRA-1-81+ cells; assay type: cell-based; conditions: DU145; flow cytometry
Experimental: as §1

HT29 cell line = test: Flow cytometry of TRA-1-81+ cells; assay type: cell-based
Experimental: as §1

SW1990GR cells = test: Cell viability (DAPI nuclei count, high content imaging); assay type: cell-based; conditions: GEM-resistant line, read-out: IC50 for GEM (viability)
Experimental: To establish GR cell lines, cells were first cultured with 10 nM GEM till cell growth became stable. […] Once cell growth became stable in 100 nM GEM, cells were expanded in 100 nM GEM and used in assays.
as §3

SW1990 xenograft tumors [3] = test: GEM-resistant SW1990 xenograft passaged in nude mice; conditions: 50 mg/kg GEM i.p. twice a week, 3 passages in vivo, vs PBS control
Experimental: Whether the epitope of TRA-1-60 and TRA-1-81 antibodies also enriches CCCs in vivo, with xenograft tumors in nude mice derived from SW1990 cells implanted subcutaneously, was examined. Mice carrying tumors were randomly separated into two groups: one was treated with 50 mg/kg GEM via intraperitoneal injection twice a week for 4 weeks; the other was treated with the same volume of PBS as control. After 3 passages in vivo (˜6 months), the control and GR xenograft tumors were analyzed with immunofluorescence (FIG. 1K).
as §2

CCc1c2c(nc3ccc(OC(=O)N4CCC(N5CCCCC5)CC4)cc13)-c1cc3c(c(=O)n1C2)COC(=O)[C@]3(O)CC [CPT-11, Irinotecan hydrochloride]
TRA-1-81+ cell population after acute drug treatment (TRA-1-81+ SW1990 cells): highly enriched | TRA-1-81+ cell population after acute drug treatment (A549 cell line): significant enhancement

Nc1nc2[nH]cc(CCc3ccc(C(=O)N[C@@H](CCC(=O)O)C(=O)O)cc3)c2c(=O)[nH]1 [PMX, Pemetrexed disodium heptahydrate]
TRA-1-81+ cell population after acute drug treatment (TRA-1-81+ SW1990 cells): highly enriched | TRA-1-81+ cell population after acute drug treatment (A549 cell line): significant enhancement

C[C@@H]1O[C@@H](O[C@H]2C[C@@H](O)[C@]3(CO)[C@H]4[C@H](O)C[C@]5(C)[C@@H](C6=CC(=O)OC6)CC[C@]5(O)[C@@H]4CC[C@]3(O)C2)[C@H](O)[C@H](O)[C@H]1O [Ouabain]
validation of primary hit (TRA-1-60+ SW1990GR cells): able to be validated

Nc1ccn([C@@H]2O[C@H](CO)[C@@H](O)C2(F)F)c(=O)n1 [GEM, Gemcitabine hydrochloride]
TRA-1-60 staining in patient derived xenograft tumors [1]: detected | IC50 (SW1990 cells): 9.6 ± 3.2 nM | tumor growth (luciferase intensity) (SW1990 xenograft tumors [2]; 3 weeks, i.p. twice per week, GEM 50 mg/kg, CYM 2 mg/kg): grew more slowly | percentage of TRA-1-60+ cells in xenograft tumors (SW1990 xenograft tumors [2]; GEM-treated tumors without CYM, immunofluorescence): ~27% | TRA-1-81+ cell population after acute GEM treatment (RKO cell line): significant increase | TRA-1-81+ cell population after acute drug treatment (TRA-1-81+ SW1990 cells): significant increase | TRA-1-81+ cell population after acute GEM treatment (HCT116 cell line): significant increase | TRA-1-81+ cell population after acute drug treatment (A549 cell line): significant increase | TRA-1-81+ cell population after acute GEM treatment (DU145 cell line): significant increase | TRA-1-81+ cell population after acute GEM treatment (HT29 cell line): significant increase | IC50 (SW1990GR cells): 59.4 ± 5.3 nM | percentage of TRA-1-60+ cells in GR xenograft tumors (SW1990 xenograft tumors [3]): significantly increased
